Activity calls are given as the source filed them. No cut-off for these calls is given here.
Legend:
[1] = Induction of fetal hemoglobin in human bone marrow derived CD34+ cells incubated for 5 days by FITC staining based flow cytometry analysis; format: functional, tissue-based; settings: cd34-positive (myeloid/lymphoid) cell
[2] = Metabolic stability in monkey liver microsomes assessed as parent compound remaining at 0.5 mg/mL incubated for 0.5 hrs; format: ADME, Macaca mulatta, Microsome; settings: rhesus monkey, read-out: Stabilty
[3] = Induction of fetal hemoglobin in human bone marrow derived CD34+ cells assessed as maximum efficacy incubated for 5 days by FITC staining based flow cytometry analysis relative to decitabine; format: functional; settings: CD34-positive (myeloid/lymphoid) cell, 120 h, time 5 day
[4] = Metabolic stability in human liver microsomes assessed as parent compound remaining at 0.5 mg/mL incubated for 0.5 hrs; format: ADME, Microsome; settings: read-out: Stabilty
[5] = Solubility of the compound in pH 1.2 JP1 fluid; format: physicochemical
[6] = biological target: hERG (KCNH2) (Homo sapiens, UniProt Q12809); test: Inhibition of human ERG at 10 uM relative to control
Chain of hERG (KCNH2) (Q12809 whole entry): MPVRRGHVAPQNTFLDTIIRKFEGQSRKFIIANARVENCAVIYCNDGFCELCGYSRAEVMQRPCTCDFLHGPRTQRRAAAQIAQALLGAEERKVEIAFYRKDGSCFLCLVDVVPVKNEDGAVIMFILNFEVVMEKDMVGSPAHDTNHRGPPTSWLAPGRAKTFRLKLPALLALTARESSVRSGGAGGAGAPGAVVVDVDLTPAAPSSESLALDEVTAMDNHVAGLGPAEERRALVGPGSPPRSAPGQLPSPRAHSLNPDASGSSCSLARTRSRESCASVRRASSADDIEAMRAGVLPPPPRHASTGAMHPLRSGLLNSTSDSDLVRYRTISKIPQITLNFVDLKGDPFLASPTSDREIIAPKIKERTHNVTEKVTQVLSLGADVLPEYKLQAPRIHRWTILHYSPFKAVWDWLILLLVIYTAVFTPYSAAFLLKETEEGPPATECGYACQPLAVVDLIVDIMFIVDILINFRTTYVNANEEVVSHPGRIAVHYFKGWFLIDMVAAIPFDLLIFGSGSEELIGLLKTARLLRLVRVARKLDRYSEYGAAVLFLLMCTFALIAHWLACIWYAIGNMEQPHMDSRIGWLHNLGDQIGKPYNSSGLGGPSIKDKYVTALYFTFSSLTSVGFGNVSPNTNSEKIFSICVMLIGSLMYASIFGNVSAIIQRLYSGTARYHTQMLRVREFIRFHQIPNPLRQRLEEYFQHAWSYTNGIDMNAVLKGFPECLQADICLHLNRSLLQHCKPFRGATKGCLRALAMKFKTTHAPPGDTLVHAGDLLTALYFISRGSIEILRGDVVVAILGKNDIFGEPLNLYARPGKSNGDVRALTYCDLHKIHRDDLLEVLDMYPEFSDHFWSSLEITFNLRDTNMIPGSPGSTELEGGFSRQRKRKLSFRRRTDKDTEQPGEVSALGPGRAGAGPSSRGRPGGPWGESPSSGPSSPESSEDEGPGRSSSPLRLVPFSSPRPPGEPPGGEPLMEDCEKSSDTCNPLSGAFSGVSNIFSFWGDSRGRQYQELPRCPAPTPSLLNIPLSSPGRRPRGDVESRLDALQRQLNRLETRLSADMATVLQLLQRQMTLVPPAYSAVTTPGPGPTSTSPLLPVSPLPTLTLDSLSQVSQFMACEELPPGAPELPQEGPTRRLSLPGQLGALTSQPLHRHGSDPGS

[7] = biological target: T1, CYP3A4 (Homo sapiens, UniProt P08684); test: Inhibition of CYP3A4 (unknown origin) at 10 uM relative to control; format: ADME
T1 sequence (P08684 whole entry): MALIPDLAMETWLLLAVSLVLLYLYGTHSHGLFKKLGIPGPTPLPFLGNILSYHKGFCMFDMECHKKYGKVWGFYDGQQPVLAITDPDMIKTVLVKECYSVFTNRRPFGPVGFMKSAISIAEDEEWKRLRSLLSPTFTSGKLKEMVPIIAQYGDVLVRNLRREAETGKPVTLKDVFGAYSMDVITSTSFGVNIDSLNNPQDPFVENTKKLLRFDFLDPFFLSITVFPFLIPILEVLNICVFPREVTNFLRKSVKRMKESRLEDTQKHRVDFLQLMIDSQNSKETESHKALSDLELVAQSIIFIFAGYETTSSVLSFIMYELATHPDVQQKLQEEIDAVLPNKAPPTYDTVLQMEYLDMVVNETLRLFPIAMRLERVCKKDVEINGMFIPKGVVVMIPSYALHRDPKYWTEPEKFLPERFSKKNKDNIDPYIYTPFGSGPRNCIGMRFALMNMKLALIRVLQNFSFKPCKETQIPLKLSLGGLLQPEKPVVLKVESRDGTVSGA

[8] = Toxicity in cynomolgus monkey assessed as transient hypoglycemia at 30 mg/kg, po qd administered for 6 consecutive days; format: organism-based, Macaca fascicularis; settings: in vivo, 144 h, time 6 day
[9] = Solubility of the compound in pH 6.8 JP2 fluid; format: physicochemical
[10] = AUClast in monkey at 1 mg/kg, po; format: ADME, organism-based, Macaca mulatta; parameters: route oral, time 0 - last, dose 1 mg/kg; settings: rhesus monkey, in vivo
[11] = tested on: Macaca fascicularis; test: In vivo induction of fetal hemoglobin in cynomolgus monkey assessed as gamma-globin gene expression at 30 mg/kg, po qd administered for 6 consecutive days by RT-qPCR analysis; format: functional, organism-based; settings: time 6.0 day
[12] = Half life in monkey at 1 mg/kg, po; format: ADME, organism-based, Macaca mulatta; settings: rhesus monkey, in vivo
[13] = Genotoxicity in Salmonella typhimurium by Ames test; format: toxicity; settings: salmonella enterica subsp. enterica serovar typhimurium
[14] = biological target: T2, CYP1A2 (Homo sapiens, UniProt P05177); test: Inhibition of CYP1A2 (unknown origin) at 10 uM relative to control; format: ADME
T2 sequence (P05177 whole entry): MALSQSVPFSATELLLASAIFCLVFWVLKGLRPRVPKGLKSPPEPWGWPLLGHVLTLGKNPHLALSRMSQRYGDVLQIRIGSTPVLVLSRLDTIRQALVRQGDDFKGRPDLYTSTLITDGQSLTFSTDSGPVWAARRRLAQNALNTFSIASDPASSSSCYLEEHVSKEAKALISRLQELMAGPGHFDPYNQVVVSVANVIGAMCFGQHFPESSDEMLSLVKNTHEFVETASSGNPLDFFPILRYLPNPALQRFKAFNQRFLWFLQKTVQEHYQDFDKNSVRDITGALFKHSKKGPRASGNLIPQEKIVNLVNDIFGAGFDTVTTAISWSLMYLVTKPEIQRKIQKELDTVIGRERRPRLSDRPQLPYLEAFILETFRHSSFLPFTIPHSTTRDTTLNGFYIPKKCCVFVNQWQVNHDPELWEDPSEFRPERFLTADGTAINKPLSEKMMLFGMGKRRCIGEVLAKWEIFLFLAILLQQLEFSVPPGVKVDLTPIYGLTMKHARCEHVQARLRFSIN

[15] = biological target: T1, CYP3A4; test: Mechanism based inhibition of CYP3A4 in human liver microsomes assessed as remaining percentage at 100 uM in presence of substrate incubated for 30 mins relative to control; format: ADME; settings: read-out: Activity
[16] = Cytotoxicity against human bone marrow derived CD34+ cells assessed as effect on cell viability at 15 uM by propidium iodide staining based assay relative to control; parameters: species or system CD34-positive (myeloid/lymphoid) cell; settings: read-out: Activity
[17] = Protein binding in monkey plasma; format: ADME, cell-free, Macaca mulatta; settings: rhesus monkey, read-out: PPB (converted)
[18] = biological target: CYP2D6 (Homo sapiens, UniProt P10635); test: Inhibition of CYP2D6 (unknown origin) at 10 uM relative to control; format: ADME
Chain of CYP2D6 (P10635 whole entry): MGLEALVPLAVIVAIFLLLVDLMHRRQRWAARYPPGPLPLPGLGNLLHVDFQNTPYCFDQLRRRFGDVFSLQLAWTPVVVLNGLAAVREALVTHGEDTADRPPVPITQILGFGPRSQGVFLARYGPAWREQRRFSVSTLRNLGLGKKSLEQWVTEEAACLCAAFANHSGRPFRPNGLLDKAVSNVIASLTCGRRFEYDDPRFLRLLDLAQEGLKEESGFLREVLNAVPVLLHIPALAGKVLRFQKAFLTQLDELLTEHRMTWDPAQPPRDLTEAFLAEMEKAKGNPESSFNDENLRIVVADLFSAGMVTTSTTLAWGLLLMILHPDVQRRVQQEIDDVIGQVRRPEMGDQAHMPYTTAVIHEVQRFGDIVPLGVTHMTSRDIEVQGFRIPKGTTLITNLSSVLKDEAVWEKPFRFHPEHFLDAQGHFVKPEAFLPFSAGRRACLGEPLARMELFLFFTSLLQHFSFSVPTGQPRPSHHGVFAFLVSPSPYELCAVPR

[19] = Cmax in monkey at 1 mg/kg, po; format: ADME, organism-based, Macaca mulatta; parameters: route oral, dose 1 mg/kg; settings: rhesus monkey, in vivo
[20] = biological target: CYP2C9 (Homo sapiens, UniProt P11712); test: Inhibition of CYP2C9 (unknown origin) at 10 uM relative to control; format: ADME
Chain of CYP2C9 (P11712 whole entry): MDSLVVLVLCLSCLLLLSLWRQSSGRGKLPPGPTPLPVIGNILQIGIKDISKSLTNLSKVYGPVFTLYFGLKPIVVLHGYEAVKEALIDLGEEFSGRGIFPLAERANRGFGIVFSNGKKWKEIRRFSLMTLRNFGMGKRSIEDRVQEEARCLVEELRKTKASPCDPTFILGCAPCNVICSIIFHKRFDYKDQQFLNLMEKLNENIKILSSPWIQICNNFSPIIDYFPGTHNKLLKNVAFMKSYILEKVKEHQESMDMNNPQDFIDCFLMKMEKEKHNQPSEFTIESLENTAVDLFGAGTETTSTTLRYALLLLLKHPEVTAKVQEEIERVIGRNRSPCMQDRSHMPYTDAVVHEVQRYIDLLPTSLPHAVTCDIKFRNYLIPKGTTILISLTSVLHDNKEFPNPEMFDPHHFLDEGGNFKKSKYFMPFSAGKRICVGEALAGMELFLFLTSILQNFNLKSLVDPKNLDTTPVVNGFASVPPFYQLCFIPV

[21] = tested on: Macaca fascicularis; test: In vivo induction of fetal hemoglobin in po dosed cynomolgus monkey assessed as gamma-globin gene expression administered twice for 6 consecutive days by RT-qPCR analysis; format: functional, organism-based; settings: dose mg/kg 15-30, time 6.0 day
[22] = Cytotoxicity against human bone marrow derived CD34+ cells assessed as effect on cell viability at 0.47 to 15 uM by propidium iodide staining based assay; settings: cd34-positive (myeloid/lymphoid) cell, dose 0.47-15 µM
[23] = AUClast in monkey at 10 mg/kg, po; format: ADME, organism-based, Macaca mulatta; parameters: route oral, time 0 - last, dose 10 mg/kg; settings: rhesus monkey, in vivo
[24] = Half life in monkey at 10 mg/kg, po; format: ADME, organism-based, Macaca mulatta; settings: rhesus monkey, in vivo
[25] = Cmax in monkey at 10 mg/kg, po; format: ADME, organism-based, Macaca mulatta; parameters: route oral, dose 10 mg/kg; settings: rhesus monkey, in vivo

Row | Compound | EC50 [1] | remaining at 0.5 h [2] | Emax [3] | remaining at 0.5 h [4] | also measured
1 | CN(C)C(=O)CCNC(=O)c1cc(-c2ccccc2)no1 | 1.7 µM | 4.7% | 51% | 81% | –
2 | CC(CNC(=O)c1cc(-c2ccc(F)cc2)no1)C(=O)N(C)C (racemic) | > 5 µM | 52% | – | 61% | –
3 | CC(=O)N1CC2(CC(NC(=O)c3cc(-c4ccccc4)no3)C2)C1 | 2.8 µM | 64% | 54% | > 100% | solubility [5]: > 100 µg/mL; inhibition at 10 µM [6]: 18%; inhibition at 10 µM [7]: < 0%; Activity [8]: Toxic; solubility [9]: > 100 µg/mL; AUC(0-t) [10]: 4210 ng·h/mL; Activity [11]: Active; half-life [12]: 3.7 h; Activity [13]: Non-Toxic; inhibition at 10 µM [14]: 3%; activity at 0.5 h, 100 µM [15]: 94%; viability at 15 µM [16]: 20%; fraction unbound [17]: 0.41; inhibition at 10 µM [18]: 2%; Cmax [19]: 545 ng/mL; inhibition at 10 µM [20]: < 0%; Activity [21]: Dose-dependent effect
4 | CN(C)C(=O)CCN1CCc2c(cc(-c3ccc(F)cc3)n2C)C1=O | > 5 µM | 42% | – | > 100% | –
5 | CC(=O)N1CC2(CC(NC(=O)c3cc(-c4ccc(F)cc4)no3)C2)C1 | 2.9 µM | 79% | 64% | 84% | solubility [5]: > 100 µg/mL; inhibition at 10 µM [7]: < 0%; solubility [9]: > 100 µg/mL; AUC(0-t) [10]: 2350 ng·h/mL; half-life [12]: 5.9 h; Activity [13]: Non-Toxic; inhibition at 10 µM [14]: 1%; activity at 0.5 h, 100 µM [15]: 98%; Activity [22]: Non-Toxic; fraction unbound [17]: 0.28; inhibition at 10 µM [18]: 1%; Cmax [19]: 460 ng/mL; inhibition at 10 µM [20]: < 0%
6 | CN(C)C(=O)CCNC(=O)c1cc(C2CCCCC2)no1 | > 5 µM | 34% | – | > 100% | –
7 | CN(C)C(=O)CNC(=O)c1cc(-c2ccc(F)cc2)no1 | 6.1 µM | 11% | 41% | 84% | –
8 | CN(C)C(=O)CCNC(=O)c1csc(-c2ccc(F)cc2)n1 | > 5 µM | 0.1% | – | 53% | –
9 | CN(C)C(=O)CCNC(=O)c1cc(-c2ccc(F)cc2)no1 | 2.8 µM | 10% | 56% | 87% | solubility [5]: > 100 µg/mL; inhibition at 10 µM [6]: 7.1%; inhibition at 10 µM [7]: < 0%; solubility [9]: > 100 µg/mL; Activity [13]: Non-Toxic; inhibition at 10 µM [14]: 6%; activity at 0.5 h, 100 µM [15]: 97%; fraction unbound [17]: 0.42; AUC(0-t) [23]: 4360 ng·h/mL; inhibition at 10 µM [18]: 5%; half-life [24]: 1 h; Cmax [25]: 1360 ng/mL; inhibition at 10 µM [20]: 6%
10 | CN(C)C(=O)CCNC(=O)C1CSC(c2ccc(F)cc2)N1 (mixture of isomers) | > 5 µM | 32% | – | 90% | –
11 | CC(C)C(=O)N1CC2(CC(NC(=O)c3cc(-c4ccccc4)no3)C2)C1 | > 5 µM | 55% | 27% | 79% | –
12 | CN(C)C(=O)CCN1CCc2[nH]c(-c3ccc(F)cc3)cc2C1=O | > 5 µM | 39% | – | 99% | –
13 | CN(C)C(=O)CCNC(=O)c1cc(-c2cccc(F)c2)no1 | > 5 µM | 55% | – | > 100% | –
14 | CN(C)C(=O)CCCNC(=O)c1cc(-c2ccc(F)cc2)no1 | 4.1 µM | – | 55% | – | –
15 | CCN1CC2(CC(NC(=O)c3cc(-c4ccccc4)no3)C2)C1 | 5 µM | 87% | 50% | 100% | –
16 | CCC(=O)N1CC2(CC(NC(=O)c3cc(-c4ccccc4)no3)C2)C1 | > 5 µM | 69% | 47% | 68% | –
17 | CN(C)C(=O)CCN1CCn2cc(-c3ccc(F)cc3)cc2C1=O | > 5 µM | 41% | – | 94% | –
18 | CS(=O)(=O)N1CC2(CC(NC(=O)c3cc(-c4ccccc4)no3)C2)C1 | 3.9 µM | 87% | 45% | 76% | –
19 | CN(C)CCCNC(=O)c1cc(-c2ccc(F)cc2)no1 | > 5 µM | – | – | – | –
20 | CN(C)C(=O)CCN(C)C(=O)c1cc(-c2ccc(F)cc2)no1 | > 5 µM | 36% | – | 98% | –
21 | CC(=O)N1CC(CNC(=O)c2cc(-c3ccccc3)no2)C1 | > 5 µM | 17% | – | 50% | –
22 | CN(C)C(=O)CCNC(=O)c1cc(-c2ccccc2F)no1 | > 5 µM | 4% | 37% | > 100% | –
23 | CC(CC(=O)N(C)C)NC(=O)c1cc(-c2ccc(F)cc2)no1 (racemic) | > 5 µM | 35% | – | 91% | –

Source: ChEMBL document CHEMBL4699452, “Design, synthesis, and optimization of a series of 2-azaspiro[3.3]heptane derivatives as orally bioavailable fetal hemoglobin inducers” (Bioorg Med Chem Lett, 2020)
